Measured values taken from patent publication US20240287138A1, “CYCLIC PEPTIDES FOR INHIBITING TNF RECEPTOR 1 ACTIVITY” (Merck Sharp & Dohme LLC, priority 2023, published 2024).
Numbered stars: 1 amine (or outer) side, 2 acyl side, 3 side chain; on linkers, the order of the positions; unused ones are H or OH. Bridge positions count the residues as written; N and C are the ends. Square brackets hold non-standard residues; d marks the D form. Peptide text beside a SMILES is read from it. Trp(βS-Me,7-OMe) = COc1cccc2c([C@H](C)[C@H](N)C(=O)O)c[nH]c12; Acbc(cis-1,3) = O=C([C@H]1C[C@@H](N[*:1])C1)[*:2]; Trp(7-Cl) = N[C@@H](Cc1c[nH]c2c(Cl)cccc12)C(=O)O; Ala(pyrimidin-5-yl) = N[C@@H](Cc1cncnc1)C(=O)O; Phe(4-COOH) = N[C@@H](Cc1ccc(C(=O)O)cc1)C(=O)O; Trp(7-aza) = N[C@@H](Cc1c[nH]c2ncccc12)C(=O)O; X41 = O=C([C@@H]1C[C@H](O)CCN1[*:1])[*:2]; Pip(4-aza) = O=C(O)[C@@H]1CNCCN1; 4Pal = N[C@@H](Cc1ccncc1)C(=O)O; NMeE = CN[C@@H](CCC(=O)O)C(=O)O; d(αMeP) = C[C@]1(C(=O)O)CCCN1; αMeS = C[C@](N)(CO)C(=O)O; Nle = CCCC[C@H](N)C(=O)O; Sar = CNCC(=O)O

These molecules were tested against T1, TNFα-induced NF-κB signal transduction pathway (TNFR1 signaling) in THP-1 cells (Homo sapiens, UniProt P19438) (assay: THP-1 Lucia NF-κB reporter cell assay, inhibition of TNFα-induced NF-κB signaling). Conditions: THP-1 NF-κB Lucia reporter cells, 10 ng/mL TNFα, 16-18 h, secreted luciferase; read-out: THP-1 IC50.
T1 sequence (P19438 30-455): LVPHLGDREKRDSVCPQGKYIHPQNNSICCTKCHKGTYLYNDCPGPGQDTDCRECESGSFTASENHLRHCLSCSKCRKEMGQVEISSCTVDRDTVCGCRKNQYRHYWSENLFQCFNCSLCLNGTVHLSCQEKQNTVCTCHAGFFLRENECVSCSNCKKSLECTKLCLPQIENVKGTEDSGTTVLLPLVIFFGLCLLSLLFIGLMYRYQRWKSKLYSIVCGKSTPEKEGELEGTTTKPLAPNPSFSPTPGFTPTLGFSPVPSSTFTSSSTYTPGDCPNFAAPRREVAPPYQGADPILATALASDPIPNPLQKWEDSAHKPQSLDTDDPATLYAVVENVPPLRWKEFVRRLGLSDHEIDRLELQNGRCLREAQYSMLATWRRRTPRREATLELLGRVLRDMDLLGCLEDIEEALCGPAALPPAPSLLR
Assay type: cell-based
Protocol: C. Procedure for THP-1 Lucia NF-κB cells
The inhibition of TNFα-induced NF-κB signal transduction pathways was evaluated in THP-1 cells. THP-1 cells harboring NF-κB-inducible Lucia™ reporter gene (InvivoGen, cat. #thp1-nfkb) designed for monitoring NF-κB signal transduction pathway was employed to assess the inhibitory effect macrocyclic peptides on TNFR1 signaling. The cells were cultured in media containing RPMI 1640, 2 mM L-glutamine, 25 mM HEPES, 10% heat-inactivated fetal bovine serum with appropriate selection antibiotics. Assays were performed in media that was devoid of selection antibiotics. For profiling, 125 nL of peptides in DMSO (10 mM) were dispensed into Falcon® 384-well Optilux white/clear flat bottom TC-treated microtest microplate (Corning, cat. #353963) using Echo® 555. […] A suspension of 1 million cells/mL was dispensed at 20 μL/well in a 384-well plate to a density of 20,000 cells/well and pre-incubated with peptides at 37° C. for 1 h. Subsequently, 5 μL of TNF containing media (recombinant human TNFα; R&D Systems USA, cat. #210-TA-005/CF) or TNF-free media (for controls) was added to the wells. The final concentration of TNFα in the assay in 10 ng/mL. After o.n. incubation at 37° C. (16-18 h), 5 μL of supernatant was aspirated and transferred to a 384-well microplate (PerkinElmer, cat. #6007680) for measurement of secreted luciferase activity with 25 μL of QUANTI-Luc™ luminescence assay reagent (InvivoGen, cat. #rep-qlc1) in each well. The luminescence was measured in EnVision® Multimode Plate Reader (PerkinElmer). Dose response curves were analyzed using a 4-parameter logistic model to calculate IC50 values, reported in Table 2, using TIBCO® Spotfire® software employing appropriate Minimum and Maximum controls.
`CCCC[C@@H]1NC(=O)CSC[C@@H](C(N)=O)NC(=O)[C@H]([C@@H](C)c2c[nH]c3c(OC)cccc23)NC(=O)CN(C)C(=O)[C@H](Cc2ccc(O)cc2)NC(=O)[C@H](Cc2ccc(C(=O)O)cc2)NC(=O)[C@](C)(CO)NC(=O)[C@H](Cc2c[nH]c3c(Cl)cccc23)NC(=O)[C@H](Cc2ccncc2)NC(=O)[C@H](CC(N)=O)NC(=O)[C@H](CCC(=O)O)N(C)C(=O)[C@H](Cc2c[nH]c3ncccc23)NC(=O)[C@@H]2CNCCN2C(=O)[C@H](Cc2cncnc2)NC1=O` [SEQ ID NO. 65] ({CH2CO}-[Nle][Ala(pyrimidin-5-yl)][Pip(4-aza)][Trp(7-aza)][NMeE]N[4Pal][Trp(7-Cl)][αMeS][Phe(4-COOH)]Y[Sar][Trp(βS-Me,7-OMe)]C-NH2; thioether N-14) gave an IC50 of 4 nM.
Work on `CCCC[C@@H]1NC(=O)[C@H]2C[C@H](C2)NC(=O)[C@H]([C@@H](C)c2c[nH]c3c(OC)cccc23)NC(=O)CN(C)C(=O)[C@H](Cc2ccc(O)cc2)NC(=O)[C@H](Cc2ccc(C(=O)O)cc2)NC(=O)[C@](C)(CO)NC(=O)[C@H](Cc2c[nH]c3c(Cl)cccc23)NC(=O)[C@H](Cc2ccncc2)NC(=O)[C@H](CC(N)=O)NC(=O)[C@H](CCC(=O)O)N(C)C(=O)[C@H](Cc2c[nH]c3ccccc23)NC(=O)[C@@H]2CNCCN2C(=O)[C@H](Cc2ccncc2)NC1=O` [SEQ ID NO. 69] (cyclo([4Pal][Trp(7-Cl)][αMeS][Phe(4-COOH)]Y[Sar][Trp(βS-Me,7-OMe)][Acbc(cis-1,3)][Nle][4Pal][Pip(4-aza)]W[NMeE]N)) yielded an IC50 of 1.6 nM.
`CCCC[C@@H]1NC(=O)CSC[C@@H](C(N)=O)NC(=O)[C@H]([C@@H](C)c2c[nH]c3c(OC)cccc23)NC(=O)CN(C)C(=O)[C@H](Cc2ccc(O)cc2)NC(=O)[C@H](Cc2ccc(C(=O)O)cc2)NC(=O)[C@](C)(CO)NC(=O)[C@H](Cc2c[nH]c3c(Cl)cccc23)NC(=O)[C@H](Cc2ccncc2)NC(=O)[C@H](CC(N)=O)NC(=O)[C@H](CCC(=O)O)N(C)C(=O)[C@H](Cc2c[nH]c3ccccc23)NC(=O)[C@@H]2C[C@H](O)CCN2C(=O)[C@H](Cc2ccncc2)NC1=O` [SEQ ID NO. 71] ({CH2CO}-[Nle][4Pal][X41]W[NMeE]N[4Pal][Trp(7-Cl)][αMeS][Phe(4-COOH)]Y[Sar][Trp(βS-Me,7-OMe)]C-NH2; thioether N-14) was tested, and the IC50 was 2.8 nM.
For `CCCC[C@@H]1NC(=O)CSC[C@@H](C(N)=O)NC(=O)[C@H]([C@@H](C)c2c[nH]c3c(OC)cccc23)NC(=O)CN(C)C(=O)[C@H](Cc2ccc(O)cc2)NC(=O)[C@H](Cc2ccc(C(=O)O)cc2)NC(=O)[C@](C)(CO)NC(=O)[C@H](Cc2c[nH]c3c(Cl)cccc23)NC(=O)[C@H](Cc2ccncc2)NC(=O)[C@H](CCC(=O)N(C)C)NC(=O)[C@H](CCC(=O)O)N(C)C(=O)[C@H](Cc2c[nH]c3ccccc23)NC(=O)[C@@H]2CNCCN2C(=O)[C@H](Cc2ccncc2)NC1=O` [SEQ ID NO. 75] ({CH2CO}-[Nle][4Pal][Pip(4-aza)]W[NMeE]E(NMe2)[4Pal][Trp(7-Cl)][αMeS][Phe(4-COOH)]Y[Sar][Trp(βS-Me,7-OMe)]C-NH2; thioether N-14), the IC50 was 6.1 nM.
`CCCC[C@@H]1NC(=O)CSC[C@@H](C(N)=O)NC(=O)[C@H]([C@@H](C)c2c[nH]c3c(OC)cccc23)NC(=O)CN(C)C(=O)[C@H](Cc2ccc(O)cc2)NC(=O)[C@H](Cc2ccc(C(=O)O)cc2)NC(=O)[C@](C)(CO)NC(=O)[C@H](Cc2c[nH]c3c(Cl)cccc23)NC(=O)[C@H](Cc2ccncc2)NC(=O)[C@H](CC(N)=O)NC(=O)[C@@]2(C)CCCN2C(=O)[C@H](Cc2c[nH]c3ccccc23)NC(=O)[C@@H]2CNCCN2C(=O)[C@H](Cc2ccncc2)NC1=O` [SEQ ID NO. 76] ({CH2CO}-[Nle][4Pal][Pip(4-aza)]W[d(αMeP)]N[4Pal][Trp(7-Cl)][αMeS][Phe(4-COOH)]Y[Sar][Trp(βS-Me,7-OMe)]C-NH2; thioether N-14) showed an IC50 of 4.7 nM.
